“And” between values parts separate entries of the source, which are not always exact repeats. Equal values may be shown once. Read-outs that look alike come from different tables or passages of the source.
How the values were obtained:
[1] = system: H9- and iPSC (38-2)-derived hepatic aggregates
Protocol: (§1) HPSCs were maintained on irradiated mouse embryonic feeder cells in hESC media consisting of DEME/F12 (50:50; Gibco) supplemented with 20% Knock-out serum replacement (KSR) as described previously^44. Prior to the generation of embryoid bodies (EBs), hESCs were passaged onto Matrigel™-coated plates for 1 day to deplete the population of feeder cells. […] At day 1, the EBs were harvested and re-cultured in induction medium A that consisted of StemPRO-34® supplemented with glutamine (2 mM), ascorbic acid ([…]; Sigma), MTG ([…]; Sigma), basic fibroblast growth factor (bFGF; 2.5 ng/ml), activin A (100 ng/ml), Wnt3a (25 ng/ml) and BMP4 (0.25 ng/ml) for 3 days. On day 4, the EBs were harvested and re-cultured in StemPRO-34® supplemented with bFGF (10 ng/ml), activin A (100 ng/ml), Wnt3a (25 ng/ml) and BMP4 (0.25 ng/ml) (medium B). EBs were harvested at day 6, dissociated to single cells and the cells cultured for 2 days on Matrigel™-coated 12 well plates at a concentration of 4×10^5 cells in media B without Wnt3A and with activin A at a concentration of 50 ng/ml. At day 8, medium B was replaced with hepatic specification media that consisted of Iscove's Modified Dulbecco's Medium (IMDM) supplement with 1% vol/vol B27 supplement (Invitrogen: A11576SA), ascorbic acid, MTG, FGF10 (50 ng/ml) (from day 8 to day 10), bFGF (20 ng/ml) (from day 10 to day 14), and BMP4 (50 ng/ml). Media was changed every 2 days from day 8 to day 14. To promote maturation of HES2-derived hepatic cells, they were cultured in maturation media A for 12 days. Maturation media A consisted of IMDM with 1% vol/vol B27 supplement, ascorbic acid, Glutamine, MTG, Hepatocyte growth factor (HGF) (20 ng/ml), Dexamethasone Dex) (40 ng/ml) and Oncostatin M (20 ng/ml). Aggregates were generated from the population at day 26 of culture. To generate aggregates the cells were dissociated with collagenase and TrypleLE and then cultured in six well ultra-low cluster dishes at a concentration of 6×10^5 cells per well in maturation medium A supplemented with Rho-kinase inhibitor and 0.1% BSA. Aggregates were maintained under these conditions until day 32, with media changes every 3 days. […] Media was changed every 3 days. To generate hepatocyte like cells from H9, H1 and IPS cells, the following changes were made to the hepatic specification media. […] All cytokines were human and purchased from R&D Systems, unless stated otherwise. EB and monolayer cultures were maintained in a 5% CO2, 5% O2, 90% N2 environment. Aggregation cultures were maintained in a 5% CO2 ambient air environment.
(§2) Total RNA was prepared with RNAqueous® Micro Kit (Ambion) and treated with RNase-free DNase (Ambion). 500 ng to 1 μg RNA was reverse transcribed into cDNA using random hexamers and Oligo(dT) with Superscript® III Reverse Transcriptase (Invitrogen). qPCR was performed on a MasterCycler® ep realplex (Eppendorf) using A QuentiFast SYBR Green PCR Kit (Quiagen) as described previously^45. Expression levels were normalized to the housekeeping gene TATA box binding protein (TBP). […] Total human adult and fetal liver RNA was purchased from Clontech. Two primary hepatocyte RNA samples were provided by Dr Stephen C. […] Two primary hepatocyte samples were cultured for two day and were harvested.

[2] = system: hESC-derived hepatic aggregates
Excerpt: To further mature the cells, the role of cAMP signaling was investigated. Studies using hepatic cell lines have shown that activation of this pathway can induce hepatic gene expression, in part through the induction of the peroxisome proliferator-activated receptor gamma coactivator-1-alpha (PGC1-a), a coactivator that functions together with HNF4a to regulate the expression of many genes involved in hepatocyte function 25 28. […] The proportion of ALB positive cells was not reduced in spite of the fact that the levels of mRNA declined (FIG. 5b). Without being bound by theory, these differences could reflect differences in RNA vs. protein expression. Other tissues, such as the pancreas, also express PGC-1a.
as §1, §2

[3] = system: hESC-derived hepatic aggregates; experiment: Intracellular flow cytometry of AFP+ and ALB+ cells in hepatic aggregates; assay type: cell-based, human; details: day 44 aggregates
Protocol: The proportion of ALB positive cells, on the other hand, was higher in the cAMP-treated population (89.5+/−5.6% vs 82.3+/−3.0%, P<0.05 (mean+/−SD, n=3).
Flow cytometric analyses were performed as described previously^45. For cell surface markers, staining was carried out in PBS with 10% FCS. For intracellular proteins, staining was performed on cells fixed with 4% paraformaldehyde (Electron Microscopy Science, Hatfield, PA, USA) in PBS. Cells were permeabilized with 90% ice-cold methanol for 20 minutes for Sox17 and FoxA2 staining as previously described^45. Albumin and alpha-fetoprotein staining was performed in PBS with 10% FCS and 0.5% saponin (Sigma). Stained cells were analyzed using an LSRII flow cytometer (BD).

[4] = hepatic aggregates, day 32 to 44
[5] = hepatic aggregates, day 32 to 44, average

expression of CYP1A2 [1]: 100 fold
expression of CYP2B6 [1]: 10 fold
expression of CYP3A4 [1]: 16 fold
expression of CYP3A4, CYP1A2, CYP2B6 and UGT1A1 [1]: as high as those in primary hepatocytes
expression of CYP1A2 and CYP3A4 [2]: little increase
increase in expression of CYP1A2 [2]: 18 fold
increase in expression of CYP2B6 [2]: 4.7 fold
increase in expression of CYP3A4 [2]: 2.5 fold
SMILES: Nc1ncnc2c1nc(Br)n2[C@@H]1O[C@@H]2COP(=O)(O)O[C@H]2[C@H]1O [8-Br-cAMP, 8-bromoadenosine-3′5″-cyclic monophosphate]
expression of UGT1A1 ([1]; H9-derived aggregates): 16 fold
induction of UGT1A1 expression ([2]; HES2-derived aggregates, day 44, relative to non-treated): 11 fold
expression of PGC1-a ([2]; hESC-derived insulin positive pancreatic cells): not induced
expression level of AFP [2, 4]: downregulated
expression level of ALB [2, 4]: downregulated
expression of PGC1-a [2, 4]: 15 fold
expression of G6P [2, 5]: 25 fold
expression of TAT [2, 5]: 33 fold
proportion of AFP+ cells [3]: 26% and 34.5+/−12.4%
proportion of ALB+ cells [3]: 89.5+/−5.6%
